Here are results for 28 molecules from patent publication US9453026B2, “ACC inhibitors and uses thereof” (Gilead Apollo, Inc., priority 2011, dated 2016).

Some results are limits rather than exact numbers.

Sequence of ACC2 (O00763 whole entry, species assumed): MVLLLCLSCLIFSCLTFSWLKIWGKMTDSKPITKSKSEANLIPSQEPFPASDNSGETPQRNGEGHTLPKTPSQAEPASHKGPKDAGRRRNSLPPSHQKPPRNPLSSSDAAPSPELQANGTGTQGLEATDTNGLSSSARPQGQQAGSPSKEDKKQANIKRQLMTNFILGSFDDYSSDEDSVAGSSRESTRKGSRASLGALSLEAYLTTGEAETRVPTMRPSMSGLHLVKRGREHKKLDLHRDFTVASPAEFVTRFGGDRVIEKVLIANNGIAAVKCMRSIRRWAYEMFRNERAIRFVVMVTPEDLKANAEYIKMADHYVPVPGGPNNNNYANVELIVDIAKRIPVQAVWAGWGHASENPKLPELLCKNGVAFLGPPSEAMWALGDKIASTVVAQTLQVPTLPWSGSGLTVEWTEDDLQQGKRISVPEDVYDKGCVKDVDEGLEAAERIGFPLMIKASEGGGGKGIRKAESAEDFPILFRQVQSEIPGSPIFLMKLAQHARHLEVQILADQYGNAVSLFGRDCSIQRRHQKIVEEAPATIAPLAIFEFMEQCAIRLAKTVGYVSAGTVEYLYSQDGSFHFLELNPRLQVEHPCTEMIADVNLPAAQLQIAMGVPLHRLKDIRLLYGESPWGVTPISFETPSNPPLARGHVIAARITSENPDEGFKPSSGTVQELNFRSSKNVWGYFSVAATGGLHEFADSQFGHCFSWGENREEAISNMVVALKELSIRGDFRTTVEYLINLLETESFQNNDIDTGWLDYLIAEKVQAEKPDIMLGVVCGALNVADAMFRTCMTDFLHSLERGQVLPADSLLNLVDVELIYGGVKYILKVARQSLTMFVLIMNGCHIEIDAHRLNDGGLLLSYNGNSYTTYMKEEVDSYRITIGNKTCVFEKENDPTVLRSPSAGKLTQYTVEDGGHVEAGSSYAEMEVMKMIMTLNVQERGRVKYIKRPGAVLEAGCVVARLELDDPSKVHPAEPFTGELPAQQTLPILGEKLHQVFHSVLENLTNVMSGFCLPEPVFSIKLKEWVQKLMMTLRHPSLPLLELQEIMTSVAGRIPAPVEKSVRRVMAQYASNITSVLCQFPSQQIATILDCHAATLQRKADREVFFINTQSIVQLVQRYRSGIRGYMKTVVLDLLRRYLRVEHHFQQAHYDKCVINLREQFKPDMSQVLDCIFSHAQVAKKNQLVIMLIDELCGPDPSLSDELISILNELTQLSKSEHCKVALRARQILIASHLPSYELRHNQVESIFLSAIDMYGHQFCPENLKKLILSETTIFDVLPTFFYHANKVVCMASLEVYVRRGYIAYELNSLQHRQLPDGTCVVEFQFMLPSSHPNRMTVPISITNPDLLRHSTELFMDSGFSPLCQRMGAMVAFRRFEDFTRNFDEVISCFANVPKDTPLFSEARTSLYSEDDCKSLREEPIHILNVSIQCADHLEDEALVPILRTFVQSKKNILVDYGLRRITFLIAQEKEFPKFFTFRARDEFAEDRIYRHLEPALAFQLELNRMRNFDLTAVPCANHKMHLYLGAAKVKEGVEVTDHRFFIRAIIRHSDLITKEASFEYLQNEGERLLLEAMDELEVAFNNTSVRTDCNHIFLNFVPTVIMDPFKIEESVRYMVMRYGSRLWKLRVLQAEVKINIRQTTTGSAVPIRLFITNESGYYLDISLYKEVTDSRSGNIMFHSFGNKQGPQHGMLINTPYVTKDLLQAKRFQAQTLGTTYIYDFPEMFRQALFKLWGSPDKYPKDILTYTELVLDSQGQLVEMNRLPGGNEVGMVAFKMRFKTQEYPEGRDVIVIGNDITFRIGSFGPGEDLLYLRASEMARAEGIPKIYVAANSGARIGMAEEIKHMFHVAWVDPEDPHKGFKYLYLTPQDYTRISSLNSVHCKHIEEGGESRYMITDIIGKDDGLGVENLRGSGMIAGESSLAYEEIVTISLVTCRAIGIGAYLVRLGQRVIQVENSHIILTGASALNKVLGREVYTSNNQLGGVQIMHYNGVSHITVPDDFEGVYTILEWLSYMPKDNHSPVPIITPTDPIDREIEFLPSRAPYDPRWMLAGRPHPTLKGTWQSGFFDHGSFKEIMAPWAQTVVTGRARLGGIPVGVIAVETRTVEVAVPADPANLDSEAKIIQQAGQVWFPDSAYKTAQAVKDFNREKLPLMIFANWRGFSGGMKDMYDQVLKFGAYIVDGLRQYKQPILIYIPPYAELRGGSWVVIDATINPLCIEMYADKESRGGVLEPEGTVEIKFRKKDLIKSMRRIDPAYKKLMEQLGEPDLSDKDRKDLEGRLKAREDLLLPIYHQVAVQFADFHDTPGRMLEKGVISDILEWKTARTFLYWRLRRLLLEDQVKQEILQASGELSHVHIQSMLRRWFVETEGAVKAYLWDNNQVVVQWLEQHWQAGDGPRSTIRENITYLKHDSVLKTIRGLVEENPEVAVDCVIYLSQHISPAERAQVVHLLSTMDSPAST

For this test, the target named is ACC2 (Homo sapiens, UniProt O00763). Nature of the test: In vitro ACC2 inhibition assay (ADP-Glo). The format is biochemical. To be noted: read-out: ACC2. Put shortly:
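Enzyme (human ACC1 or ACC2) and compound, serially diluted 1:3 over 11 points from a 600 uM DMSO stock, were preincubated 15 min before substrate addition.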
Consider `CCOC(=O)c1sc2c(c1C)c(=O)n(CC(=O)O)c(=O)n2C[C@@H](OC)c1ccccc1` [I-104, 2-[6-(ethoxycarbonyl)-1-[(2S)-2-methoxy-2-phenylethyl]-5-methyl-2,4-dioxo-1H,2H,3H,4H-thieno[2,3-d]pyrimidin-3-yl]acetic acid], for which the IC50 was in the range of 20 to 50 µM.
For `CCOC(=O)c1sc2c(c1C)c(=O)n(C(C)(C)C(=O)O)c(=O)n2CCc1ccccc1OC(F)(F)F` [I-106, 2-[6-(ethoxycarbonyl)-5-methyl-2,4-dioxo-1-[2-[2-(trifluoromethoxy)phenyl]ethyl]-1H,2H,3H,4H-thieno[2,3-d]pyrimidin-3-yl]-2-methylpropanoic acid], the IC50 was below 5 µM.
With `CCOC(=O)c1sc2c(c1C)c(=O)n(C(C)(C)C(N)=O)c(=O)n2CCc1ccccc1` [I-107, ethyl 3-(1-carbamoyl-1-methylethyl)-5-methyl-2,4-dioxo-1-(2-phenylethyl)-1H,2H,3H,4H-thieno[2,3-d]pyrimidine-6-carboxylate], the IC50 was below 5 µM.
As for `CCOC(=O)c1sc2c(c1C)c(=O)n(C(C)(C)C(=O)O)c(=O)n2C[C@@H](OC(C)C)c1ccccc1` [I-109, 2-[6-(ethoxycarbonyl)-5-methyl-2,4-dioxo-1-[(2S)-2-phenyl-2-(propan-2-yloxy)ethyl]-1H,2H,3H,4H-thieno[2,3-d]pyrimidin-3-yl]-2-methylpropanoic acid], the IC50 was in the range of 5 to 20 µM.
Then `CCOC(=O)c1sc2c(c1C)c(=O)n(C(C)(C)C(=O)O)c(=O)n2C[C@@H](OC)c1ccccc1` [I-111, 2-[6-(ethoxycarbonyl)-1-[(2S)-2-methoxy-2-phenylethyl]-5-methyl-2,4-dioxo-1H,2H,3H,4H-thieno[2,3-d]pyrimidin-3-yl]-2-methylpropanoic acid], with 5 to 20 µM; and `CCOC(=O)c1sc2c(c1C)c(=O)n(CC(N)=O)c(=O)n2C[C@@H](OC(C)C)c1ccccc1` [I-113, ethyl 3-(carbamoylmethyl)-5-methyl-2,4-dioxo-1-[(2S)-2-phenyl-2-(propan-2-yloxy)ethyl]-1H,2H,3H,4H-thieno[2,3-d]pyrimidine-6-carboxylate], with 20 to 50 µM.
For `CCOC(=O)c1sc2c(c1C)c(=O)n(C(C)(C)C(N)=O)c(=O)n2C[C@@H](OC(C)C)c1ccccc1` [I-114, ethyl 3-(1-carbamoyl-1-methylethyl)-5-methyl-2,4-dioxo-1-[(2S)-2-phenyl-2-(propan-2-yloxy)ethyl]-1H,2H,3H,4H-thieno[2,3-d]pyrimidine-6-carboxylate], the IC50 is 20 to 50 µM.
Then `Cc1c(-n2cccn2)sc2c1c(=O)n(C(C)(C)C(=O)O)c(=O)n2CCc1ccccc1` [I-116, 2-methyl-2-[5-methyl-2,4-dioxo-1-(2-phenylethyl)-6-(1H-pyrazol-1-yl)-1H,2H,3H,4H-thieno[2,3-d]pyrimidin-3-yl]propanoic acid], with below 5 µM; and `Cc1c(-c2ncco2)sc2c1c(=O)n(C(C)(C)C(=O)O)c(=O)n2CCc1ccccc1` [I-117, 2-methyl-2-[5-methyl-6-(1,3-oxazol-2-yl)-2,4-dioxo-1-(2-phenylethyl)-1H,2H,3H,34H-thieno[2,3-d]pyrimidin-3-yl]propanoic acid], with below 5 µM.
Then `Cc1c(-n2ccnc2)sc2c1c(=O)n(C(C)(C)C(=O)O)c(=O)n2CCc1ccccc1` [I-118, 2-[6-(1H-imidazol-1-yl)-5-methyl-2,4-dioxo-1-(2-phenylethyl)-1H,2H,3H,4H-thieno[2,3-d]pyrimidin-3-yl]-2-methylpropanoic acid], with 20 to 50 µM.
Then `Cc1c(-c2ncco2)sc2c1c(=O)n(C(C)(C)C(=O)O)c(=O)n2C[C@@H](OC(C)C)c1ccccc1` [I-120, 2-methyl-2-[5-methyl-6-(1,3-oxazol-2-yl)-2,4-dioxo-1-[(2S)-2-phenyl-2-(propan-2-yloxy)ethyl]-1H,2H,3H,4H-thieno[2,3-d]pyrimidin-3-yl]propanoic acid], with 5 to 20 µM; and `Cc1c(-n2nccn2)sc2c1c(=O)n(C(C)(C)C(=O)O)c(=O)n2CCc1ccccc1` [I-122, 2-methyl-2-[5-methyl-2,4-dioxo-1-(2-phenylethyl)-6-(2H-1,2,3-triazol-2-yl)-1H,2H,3H,4H-thieno[2,3-d]pyrimidin-3-yl]propanoic acid], with below 1 µM; and `CCOC(=O)c1sc2c(c1C)c(=O)n(C(C)(C)C(=O)O)c(=O)n2C[C@@H](OCC(C)C)c1ccccc1` [I-124, 2-[6-(ethoxycarbonyl)-5-methyl-1-[(2S)-2-(2-methylpropoxy)-2-phenylethyl]-2,4-dioxo-1H,2H,3H,4H-thieno[2,3-d]pyrimidin-3-yl]-2-methylpropanoic acid], with 5 to 20 µM.
In the case of `Cc1c(C2CCC2)sc2c1c(=O)n(C(C)(C)C(=O)O)c(=O)n2CCc1ccccc1` [I-125, 2-[6-cyclobutyl-5-methyl-2,4-dioxo-1-(2-phenylethyl)-1H,2H,3H,4H-thieno[2,3-d]pyrimidin-3-yl]-2-methylpropanoic acid], the IC50 is 5 to 20 µM.
Then `CCOC(=O)c1sc2c(c1C)c(=O)n(C(C)(C)C(=O)O)c(=O)n2C[C@@H](OC(C)C)c1ccc(I)cc1` [I-126], with 20 to 50 µM; and `CCOC(=O)c1sc2c(c1C)c(=O)n(C(C)(C)C(=O)O)c(=O)n2C[C@H](OC(C)(C)C)c1ccccc1` [I-127, 2-[1-[(2R)-2-(tert-butoxy)-2-phenylethyl]-6-(ethoxycarbonyl)-5-methyl-2,4-dioxo-1H,2H,3H,4H-thieno[2,3-d]pyrimidin-3-yl]-2-methylpropanoic acid], with 20 to 50 µM.
Then `CCOC(=O)c1sc2c(c1C)c(=O)n(C(C)(C)C(=O)O)c(=O)n2C[C@@H](OC(C)(C)C)c1ccccc1` [I-128, 2-[1-[(2S)-2-(tert-butoxy)-2-phenylethyl]-6-(ethoxycarbonyl)-5-methyl-2,4-doxo-1H,2H,3H,4H-thieno[2,3-d]pyrimidin-3-yl]-2-methylpropanoic acid], with 20 to 50 µM; and `CCOC(=O)c1sc2c(c1C)c(=O)n(C(C)(C)C(=O)O)c(=O)n2C[C@H](OC(C)C)c1ccc(I)cc1` [I-129, (R)-2-(6-(ethoxycarbonyl)-1-(2-(4-iodophenyl)-2-isopropoxyethyl)-5-methyl-2,4-dioxo-1,2-dihydrothieno[2,3-d]pyrimidin-3(4H)-yl)-2-methylpropanoic acid], with 5 to 20 µM.
Then `Cc1c(C2CC2)sc2c1c(=O)n(C(C)(C)C(=O)O)c(=O)n2CCc1ccccc1` [I-132, 2-[6-cyclopropyl-5-methyl-2,4-dioxo-1-(2-phenylethyl)-1H,2H,3H,4H-thieno[2,3-d]pyrimidin-3-yl]-2-methylpropanoic acid], with 20 to 50 µM; and `Cc1c(-c2ncco2)sc2c1c(=O)n(C(C)(C)C(=O)O)c(=O)n2C[C@H](OCc1ccccc1)c1ccccc1` [I-136, 2-[1-[(2R)-2-(benzyloxy)-2-phenylethyl]-5-methyl-6-(1,3-oxazol-2-yl)-2,4-dioxo-1H,2H,3H,4H-thieno[2,3-d]pyrimidin-3-yl]-2-methylpropanoic acid], with below 5 µM; and `Cc1c(-c2ncco2)sc2c1c(=O)n(C(C)(C)C(=O)O)c(=O)n2C[C@H](OCC(F)(F)F)c1ccccc1` [I-137, 2-methyl-2-[5-methyl-6-(1,3-oxazol-2-yl)-2,4-dioxo-1-[2-phenyl-2-(2,2,2-trifluoroethoxy)ethyl]-1H,2H,3H,4H-thieno[2,3-d]pyrimidin-3-yl]propanoic acid], with below 1 µM.
With `Cc1c(-c2ncco2)sc2c1c(=O)n(C(C)(C)C(=O)O)c(=O)n2C[C@@H](OCC(F)(F)F)c1ccccc1` [I-138, (S)-2-methyl-2-(5-methyl-6-(oxazol-2-yl)-2,4-dioxo-1-(2-phenyl-2-(2,2,2-trifluoroethoxy)ethyl)-1,2-dihydrothieno[2,3-d]pyrimidin-3(4H)-yl)propanoic acid], the IC50 is 5 to 20 µM.
In the case of `Cc1c(-c2nccs2)sc2c1c(=O)n(C(C)(C)C(=O)O)c(=O)n2C[C@H](OC(C)C)c1ccccc1` [I-141, 2-methyl-2-[5-methyl-2,4-dioxo-1-[(2R)-2-phenyl-2-(propan-2-yloxy)ethyl]-6-(1,3-thiazol-2-yl)-1H,2H,3H,4H-thieno[2,3-d]pyrimidin-3-yl]propanoic acid], the IC50 is below 5 µM.
In the case of `Cc1c(-c2ncco2)sc2c1c(=O)n(CC#N)c(=O)n2C[C@H](OC(C)C)c1ccccc1` [I-142, 2-(1-((R)-2-Isopropoxy-2-phenylethyl)-5-methyl-6-(oxazol-2-yl)-2,4-dioxo-1,2-dihydrothieno[2,3-d]pyrimidin-3(4H)-yl)acetonitrile], the IC50 is below 1 µM.
Take `Cc1c(-c2ncco2)sc2c1c(=O)n(C(C)(C)C(=O)O)c(=O)n2C[C@@H](Oc1ccccc1)c1ccccc1` [I-144, 2-methyl-2-[5-methyl-6-(1,3-oxazol-2-yl)-2,4-dioxo-1-[(2S)-2-phenoxy-2-phenylethyl]-1H,2H,3H,4H-thieno[2,3-d]pyrimidin-3-yl]propanoic acid]: the IC50 lay within 5 to 20 µM.
Then `Cc1c(-c2ncco2)sc2c1c(=O)n(C(C)(C)C(=O)O)c(=O)n2C[C@H](OCC1CCCO1)c1ccccc1` (stereo partly drawn) [I-146, 2-methyl-2-[5-methyl-6-(1,3-oxazol-2-yl)-2,4-dioxo-1-[(2R)-2-(oxolan-2-ylmethoxy)-2-phenylethyl]-1H,2H,3H,4H-thieno[2,3-d]pyrimidin-3-yl]propanoic acid], with below 1 µM; and `Cc1c(-c2ncco2)sc2c1c(=O)n(C(C)(C)C(=O)O)c(=O)n2C[C@H](OC1CCC(C)(C)CC1)c1ccccc1` [I-148, 2-[1-[(2R)-2-[(4,4-dimethylcyclohexyl)oxy]-2-phenylethyl]-5-methyl-6-(1,3-oxazol-2-yl)-2,4-dioxo-1H,2H,3H,4H-thieno[2,3-d]pyrimidin-3-yl]-2-methylpropanoic acid], with below 5 µM.
Then `Cc1c(-c2ncco2)sc2c1c(=O)n(C(C)(C)C(=O)O)c(=O)n2C[C@H](Oc1ccc(F)cc1)c1ccccc1` [I-149, (R)-2-(1-(2-(4-fluorophenoxy)-2-phenylethyl)-5-methyl-6-(oxazol-2-yl)-2,4-dioxo-1,2-dihydrothieno[2,3-d]pyrimidin-3(4H)-yl)-2-methylpropanoic acid], with below 1 µM.
